Assay results: patent EP3417074B1, “ANALYTICAL METHODS AND ARRAYS FOR USE IN THE SAME” (SenzaGen AB, priority 2016, dated 2017)
Read-outs that look alike come from different tables or passages of the source.

Experiments:
MUTZ-3 cells = assay: GARD binary classification (SVM on GARD prediction signature, 200 transcripts); conditions: for SVM DV: Table 8, average SVM decision value derived from triplicates
[1] = cited from earlier work
human skin = conditions: cited from earlier work

SVM DV (MUTZ-3 cells)	Molecule	binary class ([1]; Table 4)	HP (human skin; Table 4)	other results
–	O=[N+]([O-])c1ccc(F)c([N+](=O)[O-])c1 [2,4-Dinitrofluorobenzene]	sens	–	GARD binary prediction (MUTZ-3 cells; Table 1, sensitizer if median calibrated SVM DV of replicates > 0): S; binary class (HP*) ([1]; Table 1, based on [41] where available, HP 1-4=S, 5-6=NS, otherwise according to CLP): S
2,52	Sc1nc2ccccc2s1 [2-mercaptobenzothiazole]	sens	3	Human potency (human skin; Table 8): 3
–	O=[N+]([O-])c1ccc(CBr)cc1 [4-nitrobenzylbromide]	sens	–	–
-1,04	Nc1ccc(C(=O)O)cc1 [PABA]	–	–	Human potency (human skin): 5
-1,18	CC(O)CO (centres unmarked) [Propylene glycol]	–	–	Human potency (human skin; Table 8): 5
-1,39	CCCCCCCC/C=C\CCCCCCCC(=O)OCCOCC(OCCO)C1OCC(OCCO)C1OCCO (centres unmarked) [Tween 80]	non-sens	6	Human potency (human skin; Table 8): 6
–	O=CC=Cc1ccccc1 [cinnamaldehyde]	–	–	HP (human skin): 2
2,94	OCC=Cc1ccccc1 [cinnamyl alcohol]	sens	3	Human potency (human skin; Table 8): 3
–	O=c1c(-c2ccccc2)c1-c1ccccc1 [diphenylcyclopropenone]	sens	1	–
1,12	NCCN [ethylenediamine]	–	–	–
1,76	CC(C)=CCC/C(C)=C/CO [geraniol]	–	–	–
-2,05	OCC(O)CO [glycerol]	–	6	Human potency (human skin; Table 8): 6
–	CCCCCC [hexane]	non-sens	6	–
1,24	CCCCCCC(C=O)=Cc1ccccc1 [hexylcinnamic aldehyde]	sens	5	HP (human skin; Table 2, benchmark chemicals): 5; Human potency (human skin; Table 8): 5; binary class ([1]; Table 2, benchmark chemicals): sens
–	Oc1ccc(O)cc1 [hydroquinone]	sens	3	–
–	CC(CC=O)CCCC(C)(C)O (centres unmarked) [hydroxycitronellal]	sens	4	–
-2,38	CC(O)C(=O)O (centres unmarked) [lactic acid]	–	–	HP (human skin): 6; Human potency (human skin): 6
–	CCCCCCCCCCCCOC(=O)c1cc(O)c(O)c(O)c1 [lauryl gallate]	sens	2	–
–	N#CCCC(Br)(C#N)CBr (centres unmarked) [methyldibromo glutaronitrile]	sens	2	–
–	O=C(O)c1ccc(O)cc1 [p-hydroxybenzoic acid]	non-sens	–	–
–	O=CCc1ccccc1 [phenyl acetaldehyde]	sens	–	–
–	O=C(Oc1ccccc1)c1ccccc1 [phenyl benzoate]	sens	3	–
1,03	Oc1cccc(O)c1 [resorcinol]	–	4	HP (human skin; Table 2, benchmark chemicals): 4; Human potency (human skin; Table 8): 4
-1,41	O=C(O)c1ccccc1O [salicylic acid]	–	–	HP (human skin): 6; Human potency (human skin): 6
–	CN(C)C(=S)SSC(=S)N(C)C [tetramethylthiuram disulfide]	–	–	HP (human skin): 3
–	chloroanilin	sens	–	–
–	xylene	–	6	Human potency [41] (human skin; Table 6, test set): 6

Molecule	SVM DV (MUTZ-3 cells)	binary class ([1]; Table 4)	HP (human skin; Table 4)	other results
O=[N+]([O-])c1ccc(Cl)c([N+](=O)[O-])c1 [2,4-dinitrochlorobenzene]	6,31	sens	–	HP (human skin): 1; Human potency (human skin): 1; binary class ([1]; Table 2, benchmark chemicals): sens
Nc1ccccc1O [2-aminophenol]	5,98	–	–	HP (human skin): 2; Human potency (human skin): 2
C=CC(=O)OCCO [2-hydroxyethyl acrylate]	8,87	–	–	–
CC1(C)S[C@@H]2[C@H](NC(=O)Cc3ccccc3)C(=O)N2[C@H]1C(=O)O [Penicillin G]	1,06	–	–	Human potency (human skin; Table 8): 3
O=Cc1ccccc1 [benzaldehyde]	-2,13	–	–	–
Clc1ccccc1 [chlorobenzene]	-1,63	–	–	HP (human skin): 6; Human potency (human skin): 6
O=CC=O [glyoxal]	1,08	–	–	HP (human skin): 2; Human potency (human skin): 2
